From patent US4734492A, “Macrolide antibiotic M 119” (Kirin Beer Kabushiki Kaisha, priority 1985, dated 1988)
≈ marks a conversion by molar mass, not a printed value. Read-outs that look alike come from different tables or passages of the source.

Tests used:
Bacillus cereus IAM 1729 = assay: MIC by agar dilution method; assay type: cell-based; details: IAM1729
From the text: (§1) Also shown in the same table are the MIC's obtained for josamycin (JM) and erythromycin (EM) as controls.

[1] = system: Bacillus subtilis ATCC 6633 (MS-1); assay: MIC by agar dilution method; assay type: cell-based; details: ATCC6633
From the text: as §1

[2] = system: Enterobacter aerogenes ATCC 13048 (MS-1); assay: MIC by agar dilution method; assay type: cell-based; details: Klebsiella aerogenes, ATCC13048
From the text: as §1

[3] = system: Enterobacter cloacae 963 (MS-1); assay: MIC by agar dilution method; assay type: cell-based
From the text: as §1

[4] = system: Escherichia coli K12 C600 (MS-1); assay: MIC by agar dilution method; assay type: cell-based; details: E. coli K12 C600 (MS-1)
From the text: as §1

[5] = system: Escherichia coli NIHJ-JC-2 (MS-1); assay: MIC by agar dilution method; assay type: cell-based; details: NIHJJC2, E. coli NIHJ-JC-2 (MS-1)
From the text: as §1

[6] = system: Klebsiella pneumoniae PCI-602 (MS-1); assay: MIC by agar dilution method; assay type: cell-based
From the text: as §1

[7] = system: Micrococcus luteus ATCC 9341 (MS-1); assay: MIC by agar dilution method; assay type: cell-based; details: ATCC9341
From the text: as §1

Mycoplasma pneumoniae = assay: MIC by agar dilution method; assay type: cell-based
From the text: as §1

[8] = system: Proteus morganii IFO 3848 (MS-1); assay: MIC by agar dilution method; assay type: cell-based; details: Morganella morganii, IFO3848
From the text: as §1

[9] = system: Proteus rettgeri IFO 3850 (MS-1); assay: MIC by agar dilution method; assay type: cell-based; details: Providencia rettgeri, IFO3850
From the text: as §1

[10] = system: Proteus vulgaris OX-19 (MS-1); assay: MIC by agar dilution method; assay type: cell-based
From the text: as §1

[11] = system: Pseudomonas aeruginosa IFO 3445 (MS-1); assay: MIC by agar dilution method; assay type: cell-based; details: IFO3445
From the text: as §1

[12] = system: Pseudomonas aeruginosa NCTC 10490 (MS-1); assay: MIC by agar dilution method; assay type: cell-based; details: NCTC10490
From the text: as §1

[13] = system: Pseudomonas aeruginosa PAO 1 (MS-1); assay: MIC by agar dilution method; assay type: cell-based
From the text: as §1

[14] = system: Salmonella enteritidis G 14 (MS-1); assay: MIC by agar dilution method; assay type: cell-based; details: Salmonella enterica
From the text: as §1

[15] = system: Salmonella paratyphi 1015 (MS-1); assay: MIC by agar dilution method; assay type: cell-based; details: Salmonella enterica
From the text: as §1

[16] = system: Salmonella schottmuelleri 8006 (MS-1); assay: MIC by agar dilution method; assay type: cell-based
From the text: as §1

[17] = system: Salmonella typhi 901 (MS-1); assay: MIC by agar dilution method; assay type: cell-based; details: Salmonella enterica
From the text: as §1

[18] = system: Salmonella typhimurium IID971 (MS-1); assay: MIC by agar dilution method; assay type: cell-based; details: Salmonella enterica
From the text: as §1

[19] = system: Serratia marcescens IAM 1184 (MS-1); assay: MIC by agar dilution method; assay type: cell-based; details: IAM1184
From the text: as §1

[20] = system: Staphylococcus aureus FDA 209PJC-1 (MS-1); assay: MIC by agar dilution method; assay type: cell-based
From the text: as §1

[21] = system: Staphylococcus aureus MS 353 (MS-1); assay: MIC by agar dilution method; assay type: cell-based
From the text: as §1

[22] = system: Staphylococcus aureus Terajima (MS-1); assay: MIC by agar dilution method; assay type: cell-based
From the text: as §1

[23] = system: Streptococcus pyogenes Cook (MS-1); assay: MIC by agar dilution method; assay type: cell-based
From the text: as §1

[24] = system: Staphylococcus aureus MS 12917 Mac^r; assay: MIC by agar dilution method; assay type: cell-based
From the text: as §1
(§2) Note: "Mac^r " stands for a constitutive macrolide resistant

[25] = system: Staphylococcus aureus MS 15009 (pI258) Mac^r; assay: MIC by agar dilution method; assay type: cell-based
From the text: as §1, §2

Solubility = assay type: physicochemical
[26] = agar dilution, Bacillus cereus IAM 1729, read-out: MIC
[27] = agar dilution, Bacillus subtilis ATCC 6633 (MS-1), read-out: MIC
[28] = agar dilution, Enterobacter aerogenes ATCC 13048 (MS-1), read-out: MIC
[29] = agar dilution, Enterobacter cloacae 963 (MS-1), read-out: MIC
[30] = agar dilution, Klebsiella pneumoniae PCI-602 (MS-1), read-out: MIC
[31] = agar dilution, Micrococcus luteus ATCC 9341 (MS-1), read-out: MIC
[32] = agar dilution, Mycoplasma pneumoniae, read-out: MIC
[33] = agar dilution, Proteus morganii IFO 3848 (MS-1), read-out: MIC
[34] = agar dilution, Proteus rettgeri IFO 3850 (MS-1), read-out: MIC
[35] = agar dilution, Proteus vulgaris OX-19 (MS-1), read-out: MIC
[36] = agar dilution, Pseudomonas aeruginosa IFO 3445 (MS-1), read-out: MIC
[37] = agar dilution, Pseudomonas aeruginosa NCTC 10490 (MS-1), read-out: MIC
[38] = agar dilution, Pseudomonas aeruginosa PAO 1 (MS-1), read-out: MIC
[39] = agar dilution, Salmonella enteritidis G 14 (MS-1), read-out: MIC
[40] = agar dilution, Salmonella typhimurium IID971 (MS-1), read-out: MIC
[41] = agar dilution, Serratia marcescens IAM 1184 (MS-1), read-out: MIC
[42] = agar dilution, S. aureus FDA 209PJC-1 (MS-1), read-out: MIC
[43] = agar dilution, S. aureus MS 353 (MS-1), read-out: MIC
[44] = agar dilution, S. aureus Terajima (MS-1), read-out: MIC
[45] = agar dilution, Streptococcus pyogenes Cook (MS-1), read-out: MIC

CO[C@@H]1[C@@H](O[C@@H]2O[C@H](C)[C@@H](O[C@H]3C[C@@](C)(O)[C@@H](OC(=O)CC(C)C)[C@H](C)O3)[C@H](N(C)C)[C@H]2O)[C@@H](CC=O)C[C@@H](C)[C@@H](O)/C=C/C=C/C[C@@H](C)OC(=O)C[C@H]1OC(C)=O [JM, josamycin, reference compound]
MIC (Bacillus cereus IAM 1729; [26]): 0.39 µg/mL (≈ 0.471 µM)
MIC [1, 27]: 0.39 µg/mL (≈ 0.471 µM)
MIC [2, 28]: > 100 µg/mL
MIC [3, 29]: > 100 µg/mL
MIC [4]: > 100 µg/mL
MIC [5]: > 100 µg/mL
MIC [6, 30]: 12.5 µg/mL (≈ 15.1 µM)
MIC [7, 31]: < 0.1 µg/mL
MIC (Mycoplasma pneumoniae; [32]): 0.2 µg/mL (≈ 0.242 µM)
MIC [8, 33]: > 100 µg/mL
MIC [9, 34]: > 100 µg/mL
MIC [10, 35]: > 100 µg/mL
MIC [11, 36]: > 100 µg/mL
MIC [12, 37]: > 100 µg/mL
MIC [13, 38]: > 100 µg/mL
MIC [14, 39]: > 100 µg/mL
MIC [15]: 100 µg/mL (≈ 121 µM)
MIC [16]: > 100 µg/mL
MIC [17]: > 100 µg/mL
MIC [18, 40]: > 100 µg/mL
MIC [19, 41]: > 100 µg/mL
MIC [20, 42]: 0.2 µg/mL (≈ 0.242 µM)
MIC [21, 43]: 0.78 µg/mL (≈ 0.942 µM)
MIC [22, 44]: 0.78 µg/mL (≈ 0.942 µM)
MIC [23, 45]: 0.2 µg/mL (≈ 0.242 µM)
MIC [24]: > 100 µg/mL
MIC [25]: > 100 µg/mL

CCC1OC(=O)CC(O)C(C)C(OC2OC(C)C(OC3CC(C)(O)C(O)C(C)O3)C(N(C)C)C2O)C(CC=O)CC(C)C(=O)C=CC2(C)OC2C1C (stereo not drawn) [M 119-a]
MIC (Bacillus cereus IAM 1729; [26]): 0.39 µg/mL (≈ 0.526 µM)
MIC [1, 27]: 0.2 µg/mL (≈ 0.27 µM)
MIC [2, 28]: > 100 µg/mL
MIC [3, 29]: > 100 µg/mL
MIC [4]: 100 µg/mL (≈ 135 µM)
MIC [5]: > 100 µg/mL
MIC [6, 30]: 12.5 µg/mL (≈ 16.8 µM)
MIC [7, 31]: < 0.1 µg/mL
MIC (Mycoplasma pneumoniae; [32]): 0.1 µg/mL (≈ 0.135 µM)
MIC [8, 33]: 50 µg/mL (≈ 67.4 µM)
MIC [9, 34]: > 100 µg/mL
MIC [10, 35]: > 100 µg/mL
MIC [11, 36]: > 100 µg/mL
MIC [12, 37]: > 100 µg/mL
MIC [13, 38]: > 100 µg/mL
MIC [14, 39]: > 100 µg/mL
MIC [15]: 50 µg/mL (≈ 67.4 µM)
MIC [16]: 100 µg/mL (≈ 135 µM)
MIC [17]: 100 µg/mL (≈ 135 µM)
MIC [18, 40]: > 100 µg/mL
MIC [19, 41]: > 100 µg/mL
MIC [20, 42]: 0.2 µg/mL (≈ 0.27 µM)
MIC [21, 43]: 0.78 µg/mL (≈ 1.05 µM)
MIC [22, 44]: 0.78 µg/mL (≈ 1.05 µM)
MIC [23, 45]: 0.2 µg/mL (≈ 0.27 µM)
MIC [24]: > 100 µg/mL
MIC [25]: > 100 µg/mL
Solubility (Solubility; in hexane, ether and water): insoluble
Solubility (Solubility; in methanol and chloroform): Soluble

CC[C@H]1OC(=O)[C@H](C)[C@@H](O[C@H]2C[C@@](C)(OC)[C@@H](O)[C@H](C)O2)[C@H](C)[C@@H](O[C@@H]2O[C@H](C)C[C@H](N(C)C)[C@H]2O)[C@](C)(O)C[C@@H](C)C(=O)[C@H](C)[C@@H](O)[C@]1(C)O [EM, erythromycin, reference compound]
MIC (Bacillus cereus IAM 1729; Bacillus cereus): 0.2 µg/mL (≈ 0.273 µM)
MIC ([1]; Bacillus subtilis): < 0.1 µg/mL
MIC [2]: 100 µg/mL (≈ 136 µM)
MIC ([3]; Enterobacter cloacae): > 100 µg/mL
MIC [4]: 50 µg/mL (≈ 68.1 µM)
MIC [5]: 100 µg/mL (≈ 136 µM)
MIC ([6]; Klebsiella pneumoniae): 6.25 µg/mL (≈ 8.52 µM)
MIC ([7]; Micrococcus luteus): < 0.1 µg/mL
MIC (Mycoplasma pneumoniae; Mycoplasma): 0.1 µg/mL (≈ 0.136 µM)
MIC [8]: 25 µg/mL (≈ 34.1 µM)
MIC [9]: > 100 µg/mL
MIC ([10]; Proteus vulgaris): > 100 µg/mL
MIC ([11]; Pseudomonas aeruginosa): > 100 µg/mL
MIC ([12]; Pseudomonas aeruginosa): > 100 µg/mL
MIC ([13]; Pseudomonas aeruginosa): > 100 µg/mL
MIC ([14]; ENTERITIDIS): 100 µg/mL (≈ 136 µM)
MIC [15]: 25 µg/mL (≈ 34.1 µM)
MIC [16]: 50 µg/mL (≈ 68.1 µM)
MIC [17]: 50 µg/mL (≈ 68.1 µM)
MIC [18]: 100 µg/mL (≈ 136 µM)
MIC ([19]; Serratia marcescens): 100 µg/mL (≈ 136 µM)
MIC [20]: 0.2 µg/mL (≈ 0.273 µM)
MIC [21]: 0.2 µg/mL (≈ 0.273 µM)
MIC [22]: 0.2 µg/mL (≈ 0.273 µM)
MIC ([23]; Streptococcus pyogenes): 0.2 µg/mL (≈ 0.273 µM)
MIC [24]: > 100 µg/mL
MIC [25]: > 100 µg/mL

CCC1OC(=O)CC(O)C(C)C(OC2OC(C)C(OC3CC(C)(O)C(O)C(C)O3)C(N(C)C)C2O)C(CC=O)CC(C)C(=O)C=CC2(C)OC2C1(C)O (stereo not drawn) [M 119-d]
MIC (Bacillus cereus IAM 1729; [26]): 1.56 µg/mL (≈ 2.06 µM)
MIC [1, 27]: 0.78 µg/mL (≈ 1.03 µM)
MIC [2, 28]: 100 µg/mL (≈ 132 µM)
MIC [3, 29]: > 100 µg/mL
MIC [4]: 100 µg/mL (≈ 132 µM)
MIC [5]: > 100 µg/mL
MIC [6, 30]: 12.5 µg/mL (≈ 16.5 µM)
MIC [7, 31]: 0.2 µg/mL (≈ 0.264 µM)
MIC [8, 33]: 50 µg/mL (≈ 66 µM)
MIC [9, 34]: > 100 µg/mL
MIC [10, 35]: > 100 µg/mL
MIC [11, 36]: > 100 µg/mL
MIC [12, 37]: > 100 µg/mL
MIC [13, 38]: > 100 µg/mL
MIC [14, 39]: > 100 µg/mL
MIC [15]: 25 µg/mL (≈ 33 µM)
MIC [16]: 25 µg/mL (≈ 33 µM)
MIC [17]: 100 µg/mL (≈ 132 µM)
MIC [18, 40]: > 100 µg/mL
MIC [19, 41]: > 100 µg/mL
MIC [20, 42]: 0.78 µg/mL (≈ 1.03 µM)
MIC [21, 43]: 3.13 µg/mL (≈ 4.13 µM)
MIC [22, 44]: 3.13 µg/mL (≈ 4.13 µM)
MIC [23, 45]: 0.78 µg/mL (≈ 1.03 µM)
MIC [24]: > 100 µg/mL
MIC [25]: > 100 µg/mL
Solubility (Solubility; in hexane, ether and water): insoluble
Solubility (Solubility; in methanol and chloroform): Soluble
